Data published in the NIST ThermoML archive (doi:10.1021/je800242n).
Several values for one entry are separate records, joined by “and”; a condition that tells them apart may be missing. Identical values can stand only once.

Conditions: Crystal

[F][Cd][F] [cadmium difluoride]
Conditions | vapor or sublimation pressure
962 K | 1.26e-05 kPa
968 K | 1.35e-05 kPa
973 K | 1.58e-05 kPa
977 K | 2e-05 kPa
978 K | 2.51e-05 kPa
983 K | 2.51e-05 kPa
984 K | 2.69e-05 kPa
988 K | 3.39e-05 kPa
992 K | 3.39e-05 kPa
993 K | 3.47e-05 kPa
1000 K | 5.01e-05 kPa
1001 K | 4.68e-05 kPa
1002 K | 4.57e-05 kPa
1003 K | 5.75e-05 kPa
1004 K | 5.01e-05 kPa
1009 K | 6.76e-05 kPa
1012 K | 7.94e-05 kPa
1013 K | 6.92e-05 kPa and 6.76e-05 kPa and 7.59e-05 kPa
1014 K | 5.75e-05 kPa
1016 K | 6.76e-05 kPa
1017 K | 5.75e-05 kPa and 9.12e-05 kPa
1018 K | 8.51e-05 kPa
1021 K | 0.000102 kPa
1022 K | 8.71e-05 kPa and 0.000115 kPa
1025 K | 6.76e-05 kPa and 0.000107 kPa
1026 K | 7.94e-05 kPa
1027 K | 9.12e-05 kPa
1028 K | 0.000117 kPa
1030 K | 0.000126 kPa
1031 K | 0.000135 kPa
1032 K | 9.12e-05 kPa and 0.000102 kPa and 0.00012 kPa
1033 K | 9.12e-05 kPa and 0.000158 kPa
1036 K | 0.000102 kPa
1038 K | 0.000115 kPa and 0.000162 kPa
1040 K | 0.000135 kPa and 0.000186 kPa
1042 K | 0.000162 kPa and 0.000182 kPa
1043 K | 0.000186 kPa [middle of 4 runs]
1046 K | 0.000138 kPa and 0.000158 kPa
1048 K | 0.000158 kPa
1049 K | 0.000229 kPa
1050 K | 0.000182 kPa
1051 K | 0.000214 kPa
1052 K | 0.000251 kPa and 0.000295 kPa
1053 K | 0.000251 kPa
1054 K | 0.000204 kPa and 0.000263 kPa
1055 K | 0.000182 kPa and 0.000204 kPa
1057 K | 0.000204 kPa
1059 K | 0.000229 kPa
1060 K | 0.000275 kPa
1061 K | 0.000309 kPa
1062 K | 0.000389 kPa
1064 K | 0.000275 kPa and 0.000339 kPa
1066 K | 0.000275 kPa
1068 K | 0.000295 kPa and 0.000316 kPa and 0.000275 kPa
1069 K | 0.000407 kPa and 0.000389 kPa
1070 K | 0.000355 kPa
1071 K | 0.000339 kPa
1073 K | 0.000398 kPa
1074 K | 0.000525 kPa
1075 K | 0.000389 kPa and 0.000479 kPa
1077 K | 0.000363 kPa
1078 K | 0.000407 kPa
1079 K | 0.000457 kPa [middle of 4 runs]
1080 K | 0.000501 kPa
1082 K | 0.000457 kPa
1084 K | 0.000537 kPa and 0.000676 kPa
1086 K | 0.000676 kPa
1087 K | 0.000501 kPa
1088 K | 0.00055 kPa
1089 K | 0.000457 kPa and 0.000589 kPa
1090 K | 0.00055 kPa
1091 K | 0.000708 kPa
1093 K | 0.000617 kPa
1095 K | 0.000933 kPa
1096 K | 0.000631 kPa
1097 K | 0.000631 kPa and 0.000724 kPa and 0.000912 kPa
1098 K | 0.000724 kPa and 0.000575 kPa and 0.000741 kPa
1101 K | 0.000912 kPa
1102 K | 0.000724 kPa
1103 K | 0.000933 kPa
1104 K | 0.000813 kPa
1105 K | 0.000871 kPa and 0.0012 kPa
1107 K | 0.000912 kPa and 0.000813 kPa and 0.000676 kPa
1108 K | 0.0012 kPa
1110 K | 0.00117 kPa
1111 K | 0.00117 kPa
1114 K | 0.001 kPa and 0.0011 kPa and 0.00105 kPa
1115 K | 0.00135 kPa
1116 K | 0.00151 kPa
1117 K | 0.00117 kPa and 0.00102 kPa and 0.00115 kPa
1118 K | 0.0011 kPa and 0.001 kPa and 0.00158 kPa
1120 K | 0.0017 kPa
1121 K | 0.00162 kPa
1123 K | 0.00145 kPa
1124 K | 0.00115 kPa
1125 K | 0.00132 kPa and 0.00138 kPa
1126 K | 0.00129 kPa
1127 K | 0.00145 kPa and 0.00129 kPa and 0.00191 kPa
1129 K | 0.00141 kPa and 0.002 kPa and 0.00195 kPa
1134 K | 0.00174 kPa
1135 K | 0.00195 kPa
1136 K | 0.00178 kPa and 0.00166 kPa
1137 K | 0.00245 kPa
1138 K | 0.00245 kPa
1139 K | 0.00182 kPa
1145 K | 0.00224 kPa
1147 K | 0.00229 kPa
1149 K | 0.00229 kPa
